{
  "source": "patent US9550991B2",
  "about": "“Transcription factor decoys” (PROCARTA […]., priority 2010, dated 2017)",
  "origin": "cited, not measured here",
  "key": {"[1]": {"conditions": "physiological buffers, biological fluids, salt, dilution, storage"}},
  "note": "“Also recorded” adds a separate entry of the source.",
  "data": [
    {"compound": "Nc1c2c([n+](CCCCCCCCCC[n+]3c4c(c(N)c5ccccc53)CCCC4)c3ccccc13)CCCC2.[Cl-].[Cl-]", "note": "[Compound 7, 10,10′-(decane-1,10-diyl)bis(9-amino-1,2,3,4-tetrahydroacridinium) dichloride]", "values": [
      {"measurement": "in vitro toxicity compared to dequalinium", "result": "lower toxicity in vitro compared to dequalinium; also recorded: less in vitro toxicity than dequalinium"},
      {"measurement": "stability of complexes formed with DNA", "setting": "[1]", "result": "forms more stable complexes"}
    ]},
    {"compound": "Cc1cc(N)c2ccccc2[n+]1CCCCCCCCCC[n+]1c(C)cc(N)c2ccccc21", "note": "[dequalinium]", "values": [
      {"measurement": "stability of complexes formed with DNA", "setting": "[1]", "result": "unstable over time"}
    ]}
  ]
}
